From US8293218B2, “Skin care compositions comprising substituted monoamines” (Conopco, Inc., priority 2010, dated 2012)

Tested on: Melanoderm tissue equivalent model MEL-300 containing melanocytes obtained from dark skin individuals
Assay: Melanoderm tissue equivalent model MEL-300, total melanin content (inhibition of melanogenesis)
Assay type: cell-based
Details: Melanocyte, 336 h; 10 μM in maintenance medium, 14 days, total melanin content vs DMSO vehicle control; read-out: Melanoderm (% Reduction at 10 μM)
Experimental: Melanoderm tissue equivalent model MEL-300 (MatTek: Ashland, Mass.) containing melanocytes obtained from dark skin individuals were cultured as per supplier instructions. Components were added to the maintenance medium phase (no topical treatments) at a final concentration of 10 μM for 14 days at which time the experiment was terminated and the tissues assessed for melanin content. Medium and treatments were changed three times per week. DMSO was utilized as the vehicle control and all treatments were performed at least in duplicate.
For quantification of total melanin, each Melanoderm was placed into an individual Eppendorf tube (2 mL) into which 250 μL of Solvable™ tissue solubilizer (Packard Bioscience Co., Cat #6NE9100) was added. Each tube was vortexed and incubated at 60° C. for 18 hours. Each sample was then centrifuged (5-minutes at 13,000 RPMs) to remove any particulates. 100 or 200 μL of supernatant were transferred to a 96 well microtiter plate and the absorbance read at 490 nm. Total melanin content was calculated from a standard curve using synthetic melanin (Sigma Cat #M8631). Data was analyzed for significance using the t-test in Microsoft Excel to generate p-values (p-values less than 0.01 represent 99% confidence, p values of 0.05 represent 95% confidence both of which are statistically significant).

| Compound | inhibition at 10 µM [%] |
| --- | --- |
| COc1ccc(CCNCCc2ccccc2)cc1OC [Compound 3h, 2-(3,4-dimethoxyphenyl)-N-phenethylethanamine] | 53.1 |
| COc1ccc(OC)c(CNCCc2ccccc2)c1 [Compound 3d, N-(2,5-dimethoxybenzyl)-2-phenylethanamine] | 60.3 |
| COc1ccc(CNCCC(C)C)cc1OC [Compound 9, N-(3,4-dimethoxybenzyl)-3-methylbutan-1-amine] | 1.9 |
| COc1cc(CNCCc2ccccc2)cc(OC)c1 [Compound 3g, N-(3,5-dimethoxybenzyl)-2-phenylethanamine] | 51.6 |
| COc1ccc(CNCCc2ccccc2)cc1 [Compound 3b, N-(4-methoxybenzyl)-2-phenylethanamine] | 54.4 |
| c1ccc(CCNCc2cccc(Oc3ccccc3)c2)cc1 [Compound 3c, N-(3-phenoxybenzyl)-2-phenylethanamine] | 68.9 |
| COc1ccc(CN(C)CCc2ccccc2)cc1OC [Compound 7, N-(3,4-dimethoxybenzyl)-N-methyl-2-phenylethanamine] | 44.4 |
| COc1ccc(CNCCc2ccccc2)cc1OC [Compound 3a, N-(3,4-dimethoxybenzyl)-2-phenylethanamine] | 40.3 |
| Cc1ccc(CNCCc2ccccc2)cc1C [Compound 3e, N-(3,4-dimethylbenzyl)-2-phenylethanamine] | 64.5 |
| c1ccc(CCNCC2CCCCC2)cc1 [Compound 3f, N-(cyclohexylmethyl)-2-phenylethanamine] | 69.5 |
